{"source": "ChEMBL document CHEMBL3638605", "about": "“N-hydroxy-benzamids for the treatment of cancer” (2014)", "biological_target": "T1, Histone deacetylase 8 (Homo sapiens, UniProt Q9BY41)", "T1 sequence (Q9BY41 whole entry)": "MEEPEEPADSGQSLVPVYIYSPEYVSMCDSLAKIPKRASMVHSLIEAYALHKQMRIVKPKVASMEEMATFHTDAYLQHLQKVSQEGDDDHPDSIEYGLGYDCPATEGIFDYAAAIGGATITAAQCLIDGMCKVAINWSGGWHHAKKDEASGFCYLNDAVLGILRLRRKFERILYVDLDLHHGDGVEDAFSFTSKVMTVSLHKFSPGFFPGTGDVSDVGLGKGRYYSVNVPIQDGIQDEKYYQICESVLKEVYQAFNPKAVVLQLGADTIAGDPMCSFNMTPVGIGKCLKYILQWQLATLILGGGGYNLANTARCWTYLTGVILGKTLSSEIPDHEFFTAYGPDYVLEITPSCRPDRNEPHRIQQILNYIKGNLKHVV", "assay": "Fluorometric Assay: Compounds were tested for their ability to inhibit histone deacetylase 8 using an in vitro deacetylation assay. In a detailed procedure, 8 μl of HDAC8 enzyme solution (0.125 μg/μl) was transferred to assay plates (CORNING 3676). 1 μl of half-log diluted compounds were added into wells and incubated for 15 min at rt. After that, 8 μl of substrate solution was transferred to the wells and incubated for 30 min at rt. After deacetylation of the substrate by incubation with HDAC8 enzyme, subsequent exposure to a developing reagent produced a fluorophore that was directly proportional to the level of deacetylation. So 4 μl of developer regent (Cayman 10006394) was added into the wells in the assay plates and incubated for 15 min. The fluorescence signal was measured by a FlexStation3 plate reader (excitation wave length 340-360 nm; emission wave length 440-465 nm).", "data": [{"smiles": "O=C(NO)c1ccc2c(c1)CC(Nc1nccc(-c3cccnc3)n1)CN2", "note": "(stereo unspecified)", "values": [{"measurement": "IC50", "result": 470, "unit": "nM"}]}]}
